From patent US8703701B2 (Indiana University Research and Technology Corporation, priority 2009, dated 2014) come the findings set out here.

Starred links: 1 amine or outer side, 2 acyl side, 3 side chain; linkers in the order of their positions; H or OH if unused. Non-standard residues stand in square brackets, D forms with d. Residues, ends and D or L forms follow the SMILES beside them. Groups on a side chain read outwards from the residue. *: point of attachment. γGlu = O=C(O)[C@H](CCC(=O)[*:2])N[*:1]; Palmitoyl = CCCCCCCCCCCCCCCC(=O)*; Aib = CC(C)(N)C(=O)O

One assay concerns the target T1, GLP-1 receptor (Homo sapiens, UniProt P43220).
T1 construct: expressed in transfected cells; host or cells: HEK293
The experiment in a line: cAMP induction, firefly luciferase reporter assay, GLP-1 receptor. The following applies: for Activity at GLP-1 Receptor % Relative Activity: compared to native GLP-1. The format is cell-based. As for the experimental part: (§1) The ability of each peptide to induce cAMP was measured in a firefly luciferase-based reporter assay.
(§2) At the end of the incubation, 100 μL of LucLite luminescence substrate reagent (Perkin Elmer, Wellesley, Mass.) were added to each well. The plate was shaken briefly, incubated 10 min in the dark and light output was measured on MicroBeta-1450 liquid scintillation counter (Perkin-Elmer, Wellesley, Mass.).
On the technique in general: A reporter such as luciferase makes a cellular process visible.

The target of a further assay is T2, glucagon receptor (Homo sapiens, UniProt P47871).
T2 construct: expressed in transfected cells; host or cells: HEK293
T2 sequence (P47871 26-477): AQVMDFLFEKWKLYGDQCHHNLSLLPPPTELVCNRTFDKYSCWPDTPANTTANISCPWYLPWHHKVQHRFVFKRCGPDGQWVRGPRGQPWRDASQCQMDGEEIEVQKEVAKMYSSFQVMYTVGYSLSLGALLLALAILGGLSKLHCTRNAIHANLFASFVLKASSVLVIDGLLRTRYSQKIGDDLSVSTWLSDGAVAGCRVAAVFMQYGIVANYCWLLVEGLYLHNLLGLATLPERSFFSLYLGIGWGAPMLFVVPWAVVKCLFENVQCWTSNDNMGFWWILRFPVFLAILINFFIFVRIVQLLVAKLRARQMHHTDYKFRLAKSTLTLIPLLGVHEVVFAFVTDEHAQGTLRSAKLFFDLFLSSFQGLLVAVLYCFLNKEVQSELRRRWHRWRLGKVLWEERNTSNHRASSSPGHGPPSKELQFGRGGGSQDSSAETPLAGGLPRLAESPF
The experiment in a line: cAMP induction, firefly luciferase reporter assay, glucagon receptor. The following applies: for Activity at Glucagon Receptor % Relative Activity: compared to native glucagon. The format is cell-based. As for the experimental part:
as §1, §2

The mark [1] stands for this setting: Activity at GLP-1 Receptor EC50 (nM), Table 2B.

T1 sequence (P43220 24-463): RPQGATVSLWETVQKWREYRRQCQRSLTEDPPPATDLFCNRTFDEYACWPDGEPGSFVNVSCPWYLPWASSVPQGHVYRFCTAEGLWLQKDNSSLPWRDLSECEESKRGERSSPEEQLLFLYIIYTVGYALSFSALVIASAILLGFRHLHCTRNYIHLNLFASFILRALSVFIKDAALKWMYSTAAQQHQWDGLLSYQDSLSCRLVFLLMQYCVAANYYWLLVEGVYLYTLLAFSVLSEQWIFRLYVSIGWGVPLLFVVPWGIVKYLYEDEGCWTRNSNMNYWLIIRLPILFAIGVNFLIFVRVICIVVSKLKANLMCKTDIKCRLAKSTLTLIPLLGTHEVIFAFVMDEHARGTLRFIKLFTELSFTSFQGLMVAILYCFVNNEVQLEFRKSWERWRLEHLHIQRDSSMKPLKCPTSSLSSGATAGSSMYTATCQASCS

As a reminder, the EC50 is the concentration at which the effect is half-maximal. A higher EC50 goes with lower potency in that assay. As for `CC(C)C[C@H](NC(=O)[C@H](CC(C)C)NC(=O)[C@H](Cc1c[nH]c2ccccc12)NC(=O)[C@H](CS)NC(=O)[C@@H](NC(=O)[C@H](Cc1ccccc1)NC(=O)[C@H](CCC(=O)O)NC(=O)[C@H](CCCCN)NC(=O)[C@H](C)NC(=O)[C@H](CCCNC(=N)N)NC(=O)[C@H](CCCCN)NC(=O)C(C)(C)NC(=O)[C@H](CC(=O)O)NC(=O)[C@H](CC(C)C)NC(=O)[C@H](Cc1ccc(O)cc1)NC(=O)[C@H](CCCCN)NC(=O)[C@H](CO)NC(=O)[C@H](Cc1ccc(O)cc1)NC(=O)[C@H](CC(=O)O)NC(=O)[C@H](CO)NC(=O)[C@@H](NC(=O)[C@H](Cc1ccccc1)NC(=O)[C@@H](NC(=O)CNC(=O)[C@H](CCC(N)=O)NC(=O)[C@@H](CO)NC(=O)[C@@H](N)Cc1c[nH]cn1)[C@@H](C)O)[C@@H](C)O)C(C)C)C(=O)N[C@@H](CC(=O)O)C(=O)NCC(=O)NCC(=O)N1CCC[C@H]1C(=O)N[C@@H](CO)C(=O)N[C@@H](CO)C(=O)NCC(=O)N[C@@H](C)C(=O)N1CCC[C@H]1C(=O)N1CCC[C@H]1C(=O)N1CCC[C@H]1C(=O)N[C@@H](CO)C(N)=O` [compound 60] (H-H[dS]QGTFTSDYSKYLD[Aib]KRAKEFVCWLLDGGPSSGAPPPS-NH2; N-terminus assumed), the “Activity at GLP-1 Receptor % Relative Activity” value at GLP-1 receptor (Table 2B) worked out at 19%. Moreover, it took 0.006 nM to reach a half-maximal effect on glucagon receptor (Activity at Glucagon Receptor EC50 (nM), Table 2B) (EC50). In addition, on glucagon receptor (Table 2B), the “Activity at Glucagon Receptor % Relative Activity” value was 257%.
In the case of `CC(C)C[C@H](NC(=O)[C@H](CC(C)C)NC(=O)[C@H](Cc1c[nH]c2ccccc12)NC(=O)[C@H](CS)NC(=O)[C@@H](NC(=O)[C@H](Cc1ccccc1)NC(=O)[C@H](CCC(=O)O)NC(=O)[C@H](CCCCN)NC(=O)[C@H](C)NC(=O)[C@H](CCCNC(=N)N)NC(=O)[C@H](CCCCN)NC(=O)[C@H](CCC(=O)O)NC(=O)[C@H](CC(=O)O)NC(=O)[C@H](CC(C)C)NC(=O)[C@H](Cc1ccc(O)cc1)NC(=O)[C@H](CCCCN)NC(=O)[C@H](CO)NC(=O)[C@H](Cc1ccc(O)cc1)NC(=O)[C@H](CC(=O)O)NC(=O)[C@H](CO)NC(=O)[C@@H](NC(=O)[C@H](Cc1ccccc1)NC(=O)[C@@H](NC(=O)CNC(=O)[C@H](CCC(N)=O)NC(=O)[C@@H](CO)NC(=O)[C@@H](N)Cc1c[nH]cn1)[C@@H](C)O)[C@@H](C)O)C(C)C)C(=O)N[C@@H](CC(=O)O)C(=O)NCC(=O)NCC(=O)N1CCC[C@H]1C(=O)N[C@@H](CO)C(=O)N[C@@H](CO)C(=O)NCC(=O)N[C@@H](C)C(=O)N1CCC[C@H]1C(=O)N1CCC[C@H]1C(=O)N1CCC[C@H]1C(=O)N[C@@H](CO)C(N)=O` [compound 61] (H-H[dS]QGTFTSDYSKYLDEKRAKEFVCWLLDGGPSSGAPPPS-NH2; N-terminus assumed), the “Activity at GLP-1 Receptor % Relative Activity” value on GLP-1 receptor (Table 2B) is recorded as 39%. Further, the “Activity at Glucagon Receptor % Relative Activity” value at glucagon receptor (Table 2B) stood at 88%.
The matching figures for `CCCCCCCCCCCCCCCC(=O)N[C@@H](CCC(=O)NCCCC[C@H](NC(=O)[C@H](CC(=O)O)NC(=O)[C@H](CO)NC(=O)[C@@H](NC(=O)[C@H](Cc1ccccc1)NC(=O)[C@@H](NC(=O)CNC(=O)[C@H](CCC(N)=O)NC(=O)[C@@H](CO)NC(=O)[C@@H](N)Cc1c[nH]cn1)[C@@H](C)O)[C@@H](C)O)C(=O)N[C@@H](CO)C(=O)N[C@@H](CCCCN)C(=O)N[C@@H](Cc1ccc(O)cc1)C(=O)N[C@@H](CC(C)C)C(=O)N[C@@H](CC(=O)O)C(=O)NC(C)(C)C(=O)N[C@@H](CCCCN)C(=O)N[C@@H](CCCNC(=N)N)C(=O)N[C@@H](C)C(=O)N[C@@H](CCCCN)C(=O)N[C@@H](CCC(=O)O)C(=O)N[C@@H](Cc1ccccc1)C(=O)N[C@H](C(=O)N[C@@H](CS)C(=O)N[C@@H](Cc1c[nH]c2ccccc12)C(=O)N[C@@H](CC(C)C)C(=O)N[C@@H](CC(C)C)C(=O)N[C@@H](CC(=O)O)C(=O)N[C@H](C(N)=O)[C@@H](C)O)C(C)C)C(=O)O` [compound 62] (H-H[dS]QGTFTSDK([γGlu-Palmitoyl])SKYLD[Aib]KRAKEFVCWLLDT-NH2; N-terminus assumed): 246% and 113%.
Compound `CCCCCCCCCCCCCCCC(=O)N[C@@H](CCC(=O)N[C@@H](CCC(=O)NCCCC[C@H](NC(=O)[C@H](CC(=O)O)NC(=O)[C@H](CO)NC(=O)[C@@H](NC(=O)[C@H](Cc1ccccc1)NC(=O)[C@@H](NC(=O)CNC(=O)[C@H](CCC(N)=O)NC(=O)[C@@H](CO)NC(=O)[C@@H](N)Cc1c[nH]cn1)[C@@H](C)O)[C@@H](C)O)C(=O)N[C@@H](CO)C(=O)N[C@@H](CCCCN)C(=O)N[C@@H](Cc1ccc(O)cc1)C(=O)N[C@@H](CC(C)C)C(=O)N[C@@H](CC(=O)O)C(=O)NC(C)(C)C(=O)N[C@@H](CCCCN)C(=O)N[C@@H](CCCNC(=N)N)C(=O)N[C@@H](C)C(=O)N[C@@H](CCCCN)C(=O)N[C@@H](CCC(=O)O)C(=O)N[C@@H](Cc1ccccc1)C(=O)N[C@H](C(=O)N[C@@H](CS)C(=O)N[C@@H](Cc1c[nH]c2ccccc12)C(=O)N[C@@H](CC(C)C)C(=O)N[C@@H](CC(C)C)C(=O)N[C@@H](CC(=O)O)C(=O)N[C@H](C(N)=O)[C@@H](C)O)C(C)C)C(=O)O)C(=O)O` [compound 63] (H-H[dS]QGTFTSDK([γGlu-γGlu-Palmitoyl])SKYLD[Aib]KRAKEFVCWLLDT-NH2; N-terminus assumed) gave an EC50 at GLP-1 receptor (setting [1]) of 0.02 nM. The “Activity at GLP-1 Receptor % Relative Activity” value on GLP-1 receptor (Table 2B) was 345%. For the same compound, on glucagon receptor (Table 2B), the “Activity at Glucagon Receptor % Relative Activity” value is 115%.
`CC(C)C[C@H](NC(=O)[C@H](Cc1c[nH]c2ccccc12)NC(=O)[C@H](CS)NC(=O)[C@@H](NC(=O)[C@H](Cc1ccccc1)NC(=O)[C@H](CCC(=O)O)NC(=O)[C@H](CCCCN)NC(=O)[C@H](C)NC(=O)[C@H](C)NC(=O)[C@H](CCCCN)NC(=O)C(C)(C)NC(=O)[C@H](CC(=O)O)NC(=O)[C@H](CC(C)C)NC(=O)[C@H](Cc1ccc(O)cc1)NC(=O)[C@H](CCCCN)NC(=O)[C@H](CO)NC(=O)[C@H](Cc1ccc(O)cc1)NC(=O)[C@H](CC(=O)O)NC(=O)[C@H](CO)NC(=O)[C@@H](NC(=O)[C@H](Cc1ccccc1)NC(=O)[C@@H](NC(=O)CNC(=O)[C@H](CCC(N)=O)NC(=O)C(C)(C)NC(=O)[C@@H](N)Cc1c[nH]cn1)[C@@H](C)O)[C@@H](C)O)C(C)C)C(=O)N[C@@H](CC(C)C)C(=O)N[C@@H](CC(=O)O)C(=O)N[C@H](C(N)=O)[C@@H](C)O` [compound 64] (H-H[Aib]QGTFTSDYSKYLD[Aib]KAAKEFVCWLLDT-NH2; N-terminus assumed) yielded an EC50 on GLP-1 receptor (setting [1]) of 0.012 nM. In addition, on GLP-1 receptor (Table 2B), the “Activity at GLP-1 Receptor % Relative Activity” value is 308%. Further, at glucagon receptor (Table 2B), the “Activity at Glucagon Receptor % Relative Activity” value was 79%.
In the case of `CSCC[C@H](NC(=O)[C@H](CC(C)C)NC(=O)[C@H](Cc1c[nH]c2ccccc12)NC(=O)[C@H](CCC(N)=O)NC(=O)[C@@H](NC(=O)[C@H](Cc1ccccc1)NC(=O)[C@H](CCC(=O)O)NC(=O)[C@H](CCCCN)NC(=O)[C@H](C)NC(=O)[C@H](CCCNC(=N)N)NC(=O)[C@H](CCCCN)NC(=O)[C@H](CCC(=O)O)NC(=O)[C@H](CC(=O)O)NC(=O)[C@H](CC(C)C)NC(=O)[C@H](Cc1ccc(O)cc1)NC(=O)[C@H](CCCCN)NC(=O)[C@H](CO)NC(=O)[C@H](Cc1ccc(O)cc1)NC(=O)[C@H](CC(=O)O)NC(=O)[C@H](CO)NC(=O)[C@@H](NC(=O)[C@H](Cc1ccccc1)NC(=O)[C@@H](NC(=O)CNC(=O)[C@H](CCC(N)=O)NC(=O)[C@H](CO)NC(=O)[C@@H](N)Cc1c[nH]cn1)[C@@H](C)O)[C@@H](C)O)C(C)C)C(=O)N[C@@H](CC(N)=O)C(=O)N[C@H](C(N)=O)[C@@H](C)O` [compound 65], the “Activity at GLP-1 Receptor % Relative Activity” value on GLP-1 receptor (Table 2B) is on record as 64%. Also, the “Activity at Glucagon Receptor % Relative Activity” value on glucagon receptor (Table 2B) was 264%.
Take `CSCC[C@H](NC(=O)[C@H](CC(C)C)NC(=O)[C@H](Cc1c[nH]c2ccccc12)NC(=O)[C@H](CCC(N)=O)NC(=O)[C@@H](NC(=O)[C@H](Cc1ccccc1)NC(=O)[C@H](CC(=O)O)NC(=O)[C@H](CCCCN)NC(=O)[C@H](C)NC(=O)[C@H](CCCNC(=N)N)NC(=O)[C@H](CCCNC(=N)N)NC(=O)[C@H](CCC(=O)O)NC(=O)[C@H](CC(=O)O)NC(=O)[C@H](CC(C)C)NC(=O)[C@H](Cc1ccc(O)cc1)NC(=O)[C@H](CCCCN)NC(=O)[C@H](CO)NC(=O)[C@H](Cc1ccc(O)cc1)NC(=O)[C@H](CC(=O)O)NC(=O)[C@H](CO)NC(=O)[C@@H](NC(=O)[C@H](Cc1ccccc1)NC(=O)[C@@H](NC(=O)CNC(=O)[C@H](CCC(N)=O)NC(=O)[C@H](CO)NC(=O)[C@@H](N)Cc1c[nH]cn1)[C@@H](C)O)[C@@H](C)O)C(C)C)C(=O)N[C@@H](CC(N)=O)C(=O)N[C@H](C(N)=O)[C@@H](C)O` [compound 67]: the “Activity at GLP-1 Receptor % Relative Activity” value on GLP-1 receptor (Table 2B) was found to be 47%. In addition, the “Activity at Glucagon Receptor % Relative Activity” value at glucagon receptor (Table 2B) amounted to 93%.
`CCCCCCCCCCCCCCCC(=O)NCCCC[C@H](NC(=O)[C@H](CC(=O)O)NC(=O)[C@H](CO)NC(=O)[C@@H](NC(=O)[C@H](Cc1ccccc1)NC(=O)[C@@H](NC(=O)CNC(=O)[C@H](CCC(N)=O)NC(=O)C(C)(C)NC(=O)[C@@H](N)Cc1c[nH]cn1)[C@@H](C)O)[C@@H](C)O)C(=O)N[C@@H](CO)C(=O)N[C@@H](CCCCN)C(=O)N[C@@H](Cc1ccc(O)cc1)C(=O)N[C@@H](CC(C)C)C(=O)N[C@@H](CC(=O)O)C(=O)NC(C)(C)C(=O)N[C@@H](CCCNC(=N)N)C(=O)N[C@@H](C)C(=O)N[C@@H](C)C(=O)N[C@@H](CCC(N)=O)C(=O)N[C@@H](CC(=O)O)C(=O)N[C@@H](Cc1ccccc1)C(=O)N[C@H](C(=O)N[C@@H](CCC(N)=O)C(=O)N[C@@H](Cc1c[nH]c2ccccc12)C(=O)N[C@@H](CC(C)C)C(=O)N[C@@H](CCSC)C(=O)N[C@@H](CC(=O)O)C(=O)N[C@H](C(N)=O)[C@@H](C)O)C(C)C` [compound 69] (H-H[Aib]QGTFTSDK(Palmitoyl)SKYLD[Aib]RAAQDFVQWLMDT-NH2; N-terminus assumed) came in with an EC50 at GLP-1 receptor (Activity at GLP-1 Receptor EC50 [pM], Table 3B) of 0.005 nM. Besides, on GLP-1 receptor (Table 3B), the “Activity at GLP-1 Receptor % Relative Activity” value is reported as 440%. Further, the “Activity at Glucagon Receptor % Relative Activity” value on glucagon receptor (Table 3B) stood at 325%.
